Measured values as given in patent publication US10414763B2 (CANCER RESEARCH TECHNOLOGY LIMITED, priority 2014, dated 2019).

What follows are compounds tested against T1, full-length human PKCι (Homo sapiens, UniProt P41743) (assay: PKCι IC50 IMAP fluorescence polarisation assay, full-length enzyme, 150 μM ATP). Conditions: read-out: IC50 in IMAP assay against full length PKCi at 150 μM ATP.
T1 construct: Recombinant, full-length human PKCι expressed in Sf21 insect cells is also commercially available; purchased EMD Millipore; host or cells: Sf21 insect cells (baculovirus)
T1 sequence (P41743 1-596): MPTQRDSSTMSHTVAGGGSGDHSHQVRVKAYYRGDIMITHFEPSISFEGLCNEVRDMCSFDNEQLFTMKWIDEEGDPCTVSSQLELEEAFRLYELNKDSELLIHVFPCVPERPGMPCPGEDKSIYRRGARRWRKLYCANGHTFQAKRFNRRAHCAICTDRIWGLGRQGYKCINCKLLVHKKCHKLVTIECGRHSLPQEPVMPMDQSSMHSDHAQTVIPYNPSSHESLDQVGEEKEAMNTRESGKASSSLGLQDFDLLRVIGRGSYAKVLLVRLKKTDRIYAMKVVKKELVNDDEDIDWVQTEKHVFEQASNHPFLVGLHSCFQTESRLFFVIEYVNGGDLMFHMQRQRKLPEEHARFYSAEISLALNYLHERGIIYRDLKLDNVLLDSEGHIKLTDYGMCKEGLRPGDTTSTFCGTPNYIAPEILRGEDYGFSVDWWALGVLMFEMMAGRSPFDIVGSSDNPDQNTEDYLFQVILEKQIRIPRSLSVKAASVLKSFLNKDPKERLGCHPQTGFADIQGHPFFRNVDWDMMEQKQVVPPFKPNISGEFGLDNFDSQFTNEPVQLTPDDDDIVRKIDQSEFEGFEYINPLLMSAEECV
Assay type: biochemical
Summary of the method: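 IMAP fluorescence polarisation kinase assay: 15 pM baculovirus-expressed human PKCiota with 100 nM FAM-pseudosubstrate peptide and 150 μM ATP, 1 h at 25 °C. IMAP detection reagent then 2 h at 25 °C before FP measurement. Inhibition referenced to no-compound and no-enzyme controls for IC50 fitting.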

Row | IC50 [nM] | Structure (SMILES)
1 | < 100 | CC1(C)CNCCC1Nc1nc(-c2ccnc(Nc3ccc4ccccc4n3)c2)nc2cncc(C3CCC3)c12 (stereo not shown) [Example 86, {5-Cyclobutyl-2-[2-(quinolin-2-ylamino)-pyridin-4-yl]-pyrido[3,4-d]pyrimidin-4-yl}-(3,3-dimethyl-piperidin-4-yl)-amine]
2 | < 100 | CC1(C)CNCCC1Nc1nc(-c2ccnc(Nc3nc(F)cc(F)c3F)c2)nc2cncc(C3CCC3)c12 (stereo not shown) [Example 87, {5-Cyclobutyl-2-[2-(3,4,6-trifluoro-pyridin-2-ylamino)-pyridin-4-yl]-pyrido[3,4-d]pyrimidin-4-yl}-(3,3-dimethyl-piperidin-4-yl)-amine]
3 | < 100 | CC1(C)CNCCC1Nc1nc(-c2ccnc(Nc3nccc4ccccc34)c2)nc2cncc(C3CCC3)c12 (stereo not shown) [Example 89, {5-Cyclobutyl-2-[2-(isoquinolin-1-ylamino)-pyridin-4-yl]-pyrido[3,4-d]pyrimidin-4-yl}-(3,3-dimethyl-piperidin-4-yl)-amine]
4 | 100 to 1000 | CC1(C)CNCCC1Nc1nc(-c2ccnc(Nc3ccc(OC(F)(F)F)cc3)c2)nc2cncc(C3CCC3)c12 (stereo not shown) [Example 90, {5-Cyclobutyl-2-[2-(4-trifluoromethoxy-phenylamino)-pyridin-4-yl]-pyrido[3,4-d]pyrimidin-4-yl}-(3,3-dimethyl-piperidin-4-yl)-amine]
5 | < 100 | CC1(C)CNCCC1Nc1nc(-c2ccnc(Nc3ccccc3)c2)nc2cncc(C3CCC3)c12 (stereo not shown) [Example 91, [5-Cyclobutyl-2-(2-phenylamino-pyridin-4-yl)-pyrido[3,4-d]pyrimidin-4-yl]-(3,3-dimethyl-piperidin-4-yl)-amine]
6 | < 100 | CC1(C)CNCCC1Nc1nc(-c2ccnc(Nc3cccnc3F)c2)nc2cncc(C3CCC3)c12 (stereo not shown) [Example 92, {5-Cyclobutyl-2-[2-(2-fluoro-pyridin-3-ylamino)-pyridin-4-yl]-pyrido[3,4-d]pyrimidin-4-yl}-(3,3-dimethyl-piperidin-4-yl)-amine]
7 | < 100 | CC1(C)CNCCC1Nc1nc(-c2ccnc(Nc3c(F)cccc3F)c2)nc2cncc(C3CCC3)c12 (stereo not shown) [Example 93, {5-Cyclobutyl-2-[2-(2,6-difluoro-phenylamino)-pyridin-4-yl]-pyrido[3,4-d]pyrimidin-4-yl}-(3,3-dimethyl-piperidin-4-yl)-amine]
8 | < 100 | Cc1cc2c(-c3nc(N4CCCC5NCCCC54)c4c(C5CC5)cncc4n3)ccnc2[nH]1 (stereo not shown) [Example 94, 5-Cyclopropyl-2-(2-methyl-1H-pyrrolo[2,3-b]pyridin-4-yl)-4-(octahydro-[1,5]naphthyridin-1-yl)-pyrido[3,4-d]pyrimidine]
9 | < 100 | Cc1cc2c(-c3nc(N4CCCC5NCCCC54)c4c(C5CCC5)cncc4n3)ccnc2[nH]1 (stereo not shown) [Example 95, 5-Cyclobutyl-2-(2-methyl-1H-pyrrolo[2,3-b]pyridin-4-yl)-4-(octahydro-[1,5]naphthyridin-1-yl)-pyrido[3,4-d]pyrimidine]
10 | < 100 | CC1(C)CNCCC1Nc1nc(-c2ccnc(NCc3c(F)cccc3F)c2)nc2cncc(C3CCC3)c12 (stereo not shown) [Example 96, {5-Cyclobutyl-2-[2-(2,6-difluoro-benzylamino)-pyridin-4-yl]-pyrido[3,4-d]pyrimidin-4-yl}-(3,3-dimethyl-piperidin-4-yl)-amine]
11 | < 100 | Fc1ccc(F)c(Nc2cc(-c3nc(N4CCC5NCCC54)c4c(C5CCC5)cncc4n3)ccn2)n1 (stereo not shown) [Example 97, {4-[5-Cyclobutyl-4-(hexahydro-pyrrolo [3,2-b]pyrrol-1-yl)-pyrido[3,4-d]pyrimidin-2-yl]-pyridin-2-yl}-(3,6-difluoro-pyridin-2-yl)-amine]
12 | < 100 | CNC(=O)c1cc2c(-c3nc(N4CCC5CNCCC54)c4c(C5CC5)cncc4n3)ccnc2[nH]1 (stereo not shown) [Example 99, 4-[5-Cyclopropyl-4-(octahydro-pyrrolo[3,2-c]pyridin-1-yl)-pyrido[3,4-d]pyrimidin-2-yl]-1H-pyrrolo[2,3-b]pyridine-2-carboxylic acid methylamide]
13 | < 100 | c1ccc(Nc2cc(-c3nc(N4CCC5NCCC54)c4c(C5CCC5)cncc4n3)ccn2)cc1 (stereo not shown) [Example 102, {4-[5-Cyclobutyl-4-(hexahydro-pyrrolo[3,2-b]pyrrol-1-yl)-pyrido[3,4-d]pyrimidin-2-yl]-pyndin-2-yl}-phenyl-amine]

The remaining lines, values behind:

Row | Structure (SMILES) | IC50 [nM]
14 | CN(c1nc(-c2ccnc3[nH]c4ccccc4c23)nc2cncc(C3CCC3)c12)C1CCC(N)C1 (stereo not shown) [Example 78, N-[5-Cyclobutyl-2-(9H-pyrido[2,3-b]indol-4-yl)-pyrido[3,4-d]pyrimidin-4-yl]-N-methyl-cyclopentane-1,3-diamine] | < 100
15 | CNC(=O)c1cc2c(-c3nc(N4CCNCC4)c4c(C5CC5)cncc4n3)ccnc2[nH]1 [Example 79, 4-(5-Cyclopropyl-4-piperazin-1-yl-pyrido[3,4-d]pyrimidin-2-yl)-1H-pyrrolo[2,3-b]pyridine-2-carboxylic acid methylamide] | < 100
16 | CC1(C)CNCCC1Nc1nc(-c2ccnc(Nc3ncc(Cl)cc3F)c2)nc2cncc(C3CCC3)c12 (stereo not shown) [Example 88, {2-[2-(5-Chloro-3-fluoro-pyridin-2-ylamino)-pyridin-4-yl]-5-cyclobutyl-pyrido[3,4-d]pyrimidin-4-yl}-(3,3-dimethyl-piperidin-4-yl)-amine] | < 100
17 | Fc1cc(F)c(Nc2cc(-c3nc(N4CCC5NCCC54)c4c(C5CCC5)cncc4n3)ccn2)nc1F (stereo not shown) [Example 98, {4-[5-Cyclobutyl-4-(hexahydro-pyrrolo[3,2-b]pyrrol-1-yl)-pyrido[3,4-d]pyrimidin-2-yl]-pyridin-2-yl}-(3,5,6-trifluoro-pyridin-2-yl)-amine] | < 100
18 | Cc1cc2c(-c3nc(NC4CCNCC4(C)C)c4c(C5CC5)cncc4n3)ccnc2[nH]1 (stereo not shown) [Example 100, [5-Cyclopropyl-2-(2-methyl-1H-pyrrolo[2,3-b]pyridin-4-yl)-pyrido[3,4-d]pyrimidin-4-yl]-(3,3-dimethyl-piperidin-4-yl)-amine] | < 100
19 | Cc1cc2c(-c3nc(NC4CCNCC4(C)C)c4c(C5CCC5)cncc4n3)ccnc2[nH]1 (stereo not shown) [Example 101, [5-Cyclobutyl-2-(2-methyl-1H-pyrrolo[2,3-b]pyridin-4-yl)-pyrido[3,4-d]pyrimidin-4-yl]-(3,3-dimethyl-piperidin-4-yl)-amine] | < 100
20 | Clc1ccc(Cl)c(-c2cc3c(-c4nc(N5CCC6NCCC65)c5c(C6CC6)cncc5n4)ccnc3[nH]2)c1 (stereo not shown) [Example 103, 5-Cyclopropyl-2-[2-(2,5-dichloro-phenyl)-1H-pyrrolo[2,3-b]pyridin-4-yl]-4-(hexahydro-pyrrolo[3,2-b]pyrrol-1-yl)-pyrido[3,4-d]pyrimidine] | < 100
21 | CC1(C)CNCCC1Nc1nc(-c2ccnc(Nc3cc(F)cc(F)n3)c2)nc2cncc(C3CCC3)c12 (stereo not shown) [Example 105, {5-Cyclobutyl-2-[2-(4,6-difluoro-pyridin-2-ylamino)-pyridin-4-yl]-pyrido[3,4-d]pyrimidin-4-yl}-(3,3-dimethyl-piperidin-4-yl)-amine] | 100 to 1000
22 | CN(c1nc(-c2ccnc(Nc3nc(F)c(F)cc3F)c2)nc2cncc(C3CCC3)c12)C1CCNCC1(C)C (stereo not shown) [Example 106, {5-Cyclobutyl-2-[2-(3,5,6-trifluoro-pyridin-2-ylamino)-pyridin-4-yl]-pyrido[3,4-d]pyrimidin-4-yl}-(3,3-dimethyl-piperidin-4-yl)-methyl-amine] | < 100
